Test: log P determination by HPLC on reverse-phase column (EEC Directive 79/831 Annex V.A8)
Assay type: physicochemical
Settings: not given
Procedure, shortened: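 Log P was derived from retention times by linear interpolation between successive unbranched alkan-2-one standards (C3–C16). The standards and samples ran on a C18 reverse-phase column at 43 °C with a 10→95% acetonitrile gradient in 0.1% formic acid (pH 2.7). The method follows EEC Directive 79/831 Annex V.A8.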

| Structure (SMILES) | logP |
| --- | --- |
| Cc1cc(Cl)cc(C(=O)NC2CC2CO)c1NC(=O)c1cc(Cn2cc(Cl)c(C(F)(F)C(F)(F)F)n2)nn1-c1ncccc1Cl (centres unmarked) [I-1-207] | 3.37 |
| CNC(=O)c1cc(I)cc(C)c1NC(=O)c1cc(Cn2cc(Cl)c(C(F)(F)C(F)(F)F)n2)nn1-c1ncccc1Cl [I-1-243] | 3.96 |
| Cc1cc(C#N)cc(C(=O)NC(C)C[S+](C)[O-])c1NC(=O)c1cc(Cn2cc(Cl)c(C(F)(F)C(F)(F)F)n2)nn1-c1ncccc1Cl (centres unmarked) [I-1-211] | 3.02 |
| CNC(=O)c1cc(C#N)cc(C)c1NC(=O)c1cc(Cn2cnc(C(F)(F)C(F)(F)F)n2)nn1-c1ncccc1Cl [I-1-333] | 2.25 |
| Cc1cc(C#N)cc(C(N)=O)c1NC(=O)c1cc(Cn2nc(C(F)(F)F)cc2C(F)(F)F)nn1-c1ncccc1Cl [I-1-189] | 3.15 |
| Cc1cc(Cl)cc(C(=O)NC(C)C)c1NC(=O)c1cc(Cn2nnc(-c3cc(Cl)nc(Cl)c3)n2)nn1-c1ncccc1Cl [I-1-156] | 4.17 |
| CSCC(C)NC(=O)c1cc(F)cc(C)c1NC(=O)c1cc(Cn2cc(Cl)c(C(F)(F)C(F)(F)F)n2)nn1-c1ncccc1Cl (centres unmarked) [I-1-195] | 4.13 |
| CC(C)NC(=O)c1cc(Cl)cc(Cl)c1NC(=O)c1cc(Cn2nc(C(F)(F)F)cc2C(F)(F)F)nn1-c1ncccc1Cl [I-1-305] | 3.40 |
| Cc1cc(Cl)cc(C(=O)NC(C)C)c1NC(=O)c1cc(Cn2cnc(-c3ccc(Cl)cc3)n2)nn1-c1ncccc1Cl [I-1-154] | 3.56 |
| Cc1cc(Cl)cc(C(=O)N=S(C(C)C)C(C)C)c1NC(=O)c1cc(Cn2nc(C(F)(F)F)nc2C(F)(F)F)nn1-c1ncccc1Cl [I-1-167] | 4.44 |
| O=C(NC1CC1)c1cc(Cl)cc(Cl)c1NC(=O)c1cc(Cn2nc(C(F)F)c([N+](=O)[O-])c2C(F)F)nn1-c1ncccc1Cl [I-1-261] | 3.08 |
| CNC(=O)c1cc(C#N)cc(C)c1NC(=O)c1cc(Cn2nc(C(F)(F)F)cc2C(F)(F)F)nn1-c1ncccc1Cl [I-1-186] | 3.35 |
| N#CCNC(=O)c1cc(Cl)cc(Cl)c1NC(=O)c1cc(Cn2nc(C(F)(F)F)nc2C(F)(F)F)nn1-c1ncccc1Cl [I-1-292] | 2.83 |
| CNC(=O)c1cc(Cl)cc(Cl)c1NC(=O)c1cc(Cn2cc(C(F)(F)C(F)(F)F)c(C(F)(F)C(F)(F)F)n2)nn1-c1ncccc1Cl [I-1-297] | 3.59 |
| Cc1cc(Cl)cc(C(N)=O)c1NC(=O)c1cc(Cn2cnc(C(F)(F)C(F)(F)F)n2)nn1-c1ncccc1Cl [I-1-330] | 2.39 |
| CCNC(=O)c1cc(I)cc(C)c1NC(=O)c1cc(Cn2nc(C(F)(F)F)nc2C(F)(F)F)nn1-c1ncccc1Cl [I-1-283] | 3.89 |
| Cc1cc(I)cc(C(=O)NC(C)C2CC2)c1NC(=O)c1cc(Cn2nc(C(F)(F)F)cc2C(F)(F)F)nn1-c1ncccc1Cl (centres unmarked) [I-1-233] | 4.55 |
| Cc1cc(C#N)cc(C(=O)NC2CC2)c1NC(=O)c1cc(Cn2cc(Cl)c(C(F)(F)C(F)(F)F)n2)nn1-c1ncccc1Cl [I-1-173] | 3.59 |

| Structure (SMILES) | logP |
| --- | --- |
| CNC(=O)c1cc(Cl)cc(Cl)c1NC(=O)c1cc(Cn2cnc(C(F)(F)C(F)(F)F)n2)nn1-c1ncccc1Cl [I-1-342] | 2.15 |
| Cc1cc(C#N)cc(C(N)=O)c1NC(=O)c1cc(Cn2cc(Cl)c(C(F)(F)C(F)(F)F)n2)nn1-c1ncccc1Cl [I-1-174] | 3.20 |
| CNC(=O)c1cc(F)cc(C)c1NC(=O)c1cc(Cn2nc(C(F)(F)F)nc2C(F)(F)F)nn1-c1ncccc1Cl [I-1-219] | 3.12 |
| Cc1cc(C#N)cc(C(=O)NC2CC2)c1NC(=O)c1cc(Cn2cc(C(F)(F)C(F)(F)F)c(C(F)(F)C(F)(F)F)n2)nn1-c1ncccc1Cl [I-1-191] | 4.29 |
| Cc1cc(C#N)cc(C(=O)NC2CC2CO)c1NC(=O)c1cc(Cn2cc(Cl)c(C(F)(F)C(F)(F)F)n2)nn1-c1ncccc1Cl (centres unmarked) [I-1-198] | 3.11 |
| CCNC(=O)c1cc(I)cc(C)c1NC(=O)c1cc(Cn2ccc(C(F)(F)F)n2)nn1-c1ncccc1Cl [I-1-250] | 3.28 |
| Cc1cc(I)cc(C(=O)NC(C)C)c1NC(=O)c1cc(Cn2cc(C(F)(F)C(F)(F)F)c(C(F)(F)C(F)(F)F)n2)nn1-c1ncccc1Cl [I-1-240] | 4.96 |
| Cc1cc(F)cc(C(=O)NC(C)C[S+](C)[O-])c1NC(=O)c1cc(Cn2cc(Cl)c(C(F)(F)C(F)(F)F)n2)nn1-c1ncccc1Cl (centres unmarked) [I-1-216] | 3.03 |
| N#CCNC(=O)c1cc(Cl)cc(Cl)c1NC(=O)c1cc(Cn2nc(C(F)(F)F)cc2C(F)(F)F)nn1-c1ncccc1Cl [I-1-303] | 2.98 |
| Cc1cc(Cl)cc(C(=O)NC2CCCC2N)c1NC(=O)c1cc(Cn2cc(Cl)c(C(F)(F)C(F)(F)F)n2)nn1-c1ncccc1Cl (centres unmarked) [I-1-202] | 2.30 |
| O=C(NCC1CC1)c1cc(Cl)cc(Cl)c1NC(=O)c1cc(Cn2nc(C(F)(F)F)nc2C(F)(F)F)nn1-c1ncccc1Cl [I-1-293] | 3.22 |
| Cc1cc(Cl)cc(C(=O)NC2CC2)c1NC(=O)c1cc(Cn2nc(C)c(Br)c2C)nn1-c1ncccc1Cl [I-1-271] | 3.17 |
| N#CCNC(=O)c1cc(Cl)cc(Cl)c1NC(=O)c1cc(Cn2ccc(C(F)(F)F)n2)nn1-c1ncccc1Cl [I-1-313] | 2.43 |
| CC(C)NC(=O)c1cc(Cl)cc(Cl)c1NC(=O)c1cc(Cn2ccc(C(F)(F)F)n2)nn1-c1ncccc1Cl [I-1-314] | 2.77 |
| Cc1cc(I)cc(C(=O)NC(C2CC2)C2CC2)c1NC(=O)c1cc(Cn2nc(C(F)(F)F)cc2C(F)(F)F)nn1-c1ncccc1Cl [I-1-236] | 4.80 |
| CNC(=O)c1cc(I)cc(C)c1NC(=O)c1cc(Cn2nc(C(F)(F)F)nc2C(F)(F)F)nn1-c1ncccc1Cl [I-1-237] | 3.60 |
| N#CCNC(=O)c1cc(Cl)cc(Cl)c1NC(=O)c1cc(Cn2cnc(C(F)(F)C(F)(F)F)n2)nn1-c1ncccc1Cl [I-1-337] | 2.56 |
| Cc1cc(I)cc(C(=O)NCC#N)c1NC(=O)c1cc(Cn2nc(C(F)(F)F)nc2C(F)(F)F)nn1-c1ncccc1Cl [I-1-245] | 3.53 |

Same assay, conditions: HPLC on reverse-phase column

| Structure (SMILES) | logP |
| --- | --- |
| CNC(=O)c1cc(Cl)cc(C)c1NC(=O)c1cc(Cn2nnc(-c3ccc(Cl)nc3)n2)nn1-c1ncccc1Cl [I-1-148] | 2.91 |
| Cc1cc(Cl)cc(C(=O)NCC#N)c1NC(=O)c1cc(Cn2cc(C(F)(F)C(F)(F)F)c(C(F)(F)C(F)(F)F)n2)nn1-c1ncccc1Cl [I-1-47] | 4.31 |
| Cc1cc(Br)cc(C(=O)NC(C)(C)CS(C)(=O)=O)c1NC(=O)c1cc(Cn2nc(C(F)(F)F)nc2C(F)(F)F)nn1-c1ncccc1Cl [I-1-142] | 3.67 |
| Cc1cc(Br)cc(C(=O)NC(C)C)c1NC(=O)c1cc(Cn2cc(Cl)c(C(F)(F)C(F)(F)F)n2)nn1-c1ncccc1Cl [I-1-71] | 4.40 |
| Cc1cc(Cl)cc(C(=O)NC(C)C)c1NC(=O)c1cc(Cn2nnn(CC(F)(F)F)c2=O)nn1-c1ncccc1Cl [I-1-123] | 2.92 |
| CSCC(C)(C)NC(=O)c1cc(Cl)cc(C)c1NC(=O)c1cc(Cn2cc(Br)c(C(F)(F)F)n2)nn1-c1ncccc1Cl [I-1-131] | 4.48 |
| Cc1cc(Cl)cc(C(=O)NC(C)(C)CS(C)(=O)=O)c1NC(=O)c1cc(Cn2nc(C(F)(F)F)nc2C(F)(F)F)nn1-c1ncccc1Cl [I-1-139] | 3.50 |
| Cc1cc(Cl)cc(C(=O)NC(C)C)c1NC(=O)c1cc(Cn2cc(I)c(C(F)(F)F)n2)nn1-c1ncccc1Cl [I-1-63] | 3.85 |
| Cc1cc(Cl)cc(C(=O)NC(C)C)c1NC(=O)c1cc(Cn2nnc(-c3ccc(Cl)nc3)n2)nn1-c1ncccc1Cl [I-1-149] | 3.41 |
| CSC[C@H](C)NC(=O)c1cc(Br)cc(C)c1NC(=O)c1cc(Cn2nc(C(F)(F)F)nc2C(F)(F)F)nn1-c1ncccc1Cl [I-1-135] | 4.24 |
| Cc1cc(Br)cc(C(N)=O)c1NC(=O)c1cc(Cn2cc(Cl)c(C(F)(F)C(F)(F)F)n2)nn1-c1ncccc1Cl [I-1-74] | 3.68 |
| CNC(=O)c1cc(Br)cc(C)c1NC(=O)c1cc(Cn2cc(Br)c(C(F)(F)F)n2)nn1-c1ncccc1Cl [I-1-68] | 3.46 |
| CNC(=O)c1cc(Cl)cc(C)c1NC(=O)c1cc(Cn2nc(C(F)(F)F)n(C3CC3)c2=O)nn1-c1ncccc1Cl [I-1-127] | 2.74 |
| CNC(=O)c1cc(Cl)cc(C)c1NC(=O)c1cc(Cn2cc(I)c(C(F)(F)F)n2)nn1-c1ncccc1Cl [I-1-62] | 3.41 |
| Cc1cc(Br)cc(C(=O)N[C@@H](C)CS(C)(=O)=O)c1NC(=O)c1cc(Cn2nc(C(F)(F)F)nc2C(F)(F)F)nn1-c1ncccc1Cl [I-1-146] | 3.36 |
| Cc1cc(Br)cc(C(=O)NC2CC2)c1NC(=O)c1cc(Cn2nc(C(F)(F)F)cc2C(F)(F)F)nn1-c1ncccc1Cl [I-1-60] | 3.91 |
| Cc1cc(Cl)cc(C(=O)NC2CC2)c1NC(=O)c1cc(Cn2cc(C(F)(F)C(F)(F)F)c(C(F)(F)C(F)(F)F)n2)nn1-c1ncccc1Cl [I-1-46] | 4.58 |
| CNC(=O)c1cc(Cl)cc(C)c1NC(=O)c1cc(Cn2nnc(-c3cc(C(F)(F)F)cc(C(F)(F)F)c3)n2)nn1-c1ncccc1Cl [I-1-112] | 4.28 |

Same assay, conditions: HPLC, reverse-phase column (C 18), 43° C., acidic range pH 2.7

| logP | Structure (SMILES) |
| --- | --- |
| 4.46 | O=C(NC1CC1)c1cc(Cl)cc(Cl)c1NC(=O)c1cc(Cn2nc(C(F)(F)F)cc2C(F)(F)F)nn1-c1ncc(C(F)(F)F)cc1Cl [I-2-13] |
| 4.68 | CC(C)NC(=O)c1cc(Cl)cc(Cl)c1NC(=O)c1cc(Cn2nc(C(F)(F)F)cc2C(F)(F)F)nn1-c1ncc(C(F)(F)F)cc1Cl [I-2-8] |
| 4.73 | Cc1cc(I)cc(C(=O)NC2CC2)c1NC(=O)c1cc(Cn2nc(C(F)(F)F)cc2C(F)(F)F)nn1-c1ncc(C(F)(F)F)cc1Cl [I-2-10] |

| Structure (SMILES) | logP |
| --- | --- |
| CNC(=O)c1cc(Cl)cc(C)c1NC(=O)c1cc(Cn2nc(C(F)(F)F)cc2C(F)(F)F)nn1-c1ncc(C(F)(F)F)cc1Cl [I-2-22] | 3.53 |

Same assay, conditions: reverse-phase C18 HPLC column; HPLC, reverse-phase column (C 18), 43° C., acidic range pH 2.7; read-out: logP

| chromatographic logP | Structure (SMILES) |
| --- | --- |
| 5.11 | Cc1cc(Cl)cc2c(=O)oc(-c3cc(Cn4nc(C(F)(F)F)cc4C(F)(F)F)nn3-c3ncccc3Cl)nc12 [Example 2, 2-[5-(3,5-Bistrifluoromethylpyrazol-1-ylmethyl)-2-(3-chloropyridin-2-yl)-2H-pyrazol-3-yl]-6-chloro-8-methylbenzo[d][1,3]oxazin-4-one] |
